The values that follow come from PubChem BioAssay AID248 (DTP/NCI, 2004).

SMILES strings stand for the structures. Several values for one entry are separate records, joined by “and”; a condition that tells them apart may be missing. Equal values may be shown once. Toxic doses and inconclusive results are not listed. Square brackets hold non-standard residues; d marks the D form. Peptide text beside a SMILES is read from it. * marks the point of attachment. ξ: configuration not given here. Cbz = O=C(OCc1ccccc1)*; ξNva = CCCC(N)C(=O)O

The test system of the experiment is L1210 leukemia ip in BDF1 mice, survival T/C. The experiment in a line: NCI In Vivo Anticancer Drug Screen. Data for tumor model L1210 Leukemia (intraperitoneal) in B6D2F1 (BDF1) mice. To be noted: endpoint: mean survival time, higher = longer survival. The gist of the method: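 Each compound was tested against a transplantable tumor grown in mice. The endpoint was survival, with treated animals benchmarked against vehicle controls as a simple ratio.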

[1] abbreviates: dose: 50.0 mg/kg/injection, schedule: Q01DX001 (ip), vehicle: saline.
Where [2] appears, read: dose: 100.0 mg/kg/injection, schedule: Q01DX001 (ip), vehicle: saline.
[3] abbreviates: dose: 200.0 mg/kg/injection, schedule: Q01DX001 (ip), vehicle: saline.
The mark [4] stands for this setting: dose: 400.0 mg/kg/injection, schedule: Q01DX001 (ip), vehicle: saline.
Where [5] appears, read: dose: 100.0 mg/kg/injection, schedule: Q01DX009 (ip), vehicle: saline with Tween-80.
Where [6] appears, read: dose: 100.0 mg/kg/injection, schedule: Q04DX003 (ip), vehicle: saline with Tween-80.
The mark [7] stands for this setting: dose: 200.0 mg/kg/injection, schedule: Q01DX009 (ip), vehicle: saline with Tween-80.
The mark [8] stands for this setting: dose: 200.0 mg/kg/injection, schedule: Q04DX003 (ip), vehicle: saline with Tween-80.
The mark [9] stands for this setting: dose: 400.0 mg/kg/injection, schedule: Q01DX009 (ip), vehicle: saline with Tween-80.
Setting [10] is: dose: 400.0 mg/kg/injection, schedule: Q04DX003 (ip), vehicle: saline with Tween-80.
Where [11] appears, read: dose: 100.0 mg/kg/injection, schedule: Q04DX002 (ip), vehicle: Klucel (hydroxypropylcellulose) (HPC).
[12] abbreviates: dose: 200.0 mg/kg/injection, schedule: Q04DX002 (ip), vehicle: Klucel (hydroxypropylcellulose) (HPC).
The mark [13] stands for this setting: dose: 400.0 mg/kg/injection, schedule: Q04DX002 (ip), vehicle: Klucel (hydroxypropylcellulose) (HPC).
[14] abbreviates: dose: 100.0 mg/kg/injection, schedule: Q04DX002 (ip), vehicle: saline with Tween-80.
The mark [15] stands for this setting: dose: 100.0 mg/kg/injection, schedule: Q01DX009 (ip), vehicle: Klucel (hydroxypropylcellulose) (HPC).
The mark [16] stands for this setting: dose: 200.0 mg/kg/injection, schedule: Q01DX009 (ip), vehicle: Klucel (hydroxypropylcellulose) (HPC).

`O=C(O)CC(c1ccccc1)n1ccc(=O)[nH]c1=O` (configuration not stated): the T/C (dose: 25.0 mg/kg/injection, schedule: Q01DX001 (ip), vehicle: Klucel (hydroxypropylcellulose) (HPC)) is 103 % of control; the T/C (dose: 50.0 mg/kg/injection, schedule: Q01DX001 (ip), vehicle: Klucel (hydroxypropylcellulose) (HPC)) is 106 % of control; the T/C (dose: 100.0 mg/kg/injection, schedule: Q01DX001 (ip), vehicle: Klucel (hydroxypropylcellulose) (HPC)) is 101 % of control.
For `O=C(Cc1cc2c(cc1[N+](=O)[O-])OCO2)c1c[nH]c2ccc(Br)cc12`, the T/C runs as follows: under setting [1], 98 % of control; under setting [2], 92 % of control; under setting [3], 98 % of control; under setting [4], 95 % of control.
With `COC1C=CC(OC)(C(OC)OC)O1` (configuration not stated), the T/C under setting [2] was 104 % of control, the T/C under setting [3] was 101 % of control and the T/C under setting [4] is 98 % of control.
As for `O=C(Nc1ccccc1)N(Cc1ccccc1)c1ccccc1`, the T/C is 90 % of control under setting [5]; 101 % of control under setting [6]; 89 % of control under setting [7]; 101 % of control under setting [8]; 96 % of control under setting [9]; 86 % of control under setting [10].
As to `COc1ccc(NC(=O)NC2CCCCC2)c(Cl)c1`, the T/C by setting is: under setting [11], 97 % of control; under setting [12], 102 % of control; under setting [13], 94 % of control.
For the molecule `CN(C)Cc1cc(Cl)cc(CN(C)C)c1O`, the T/C runs as follows: under setting [14], 104 % of control; (dose: 100.0 mg/kg/injection, schedule: Q04DX003 (ip), vehicle: saline) 99 % of control; (dose: 200.0 mg/kg/injection, schedule: Q04DX003 (ip), vehicle: saline) 104 % of control.
As for `CC1CCC2C(CCC3CCCCC32)C1` (configuration not stated), the T/C runs as follows: under setting [2], 107 % of control; under setting [3], 107 % of control.
As for `O=C(NCCCl)Nc1cccc(C(F)(F)F)c1`, the T/C under setting [6] was 104 % of control, the T/C under setting [8] was 107 % of control and the T/C under setting [10] was 113 % of control.
Turning to `S=c1nc[nH]c2c1ncn2C1CCCCC1`, the T/C (dose: 47.0 mg/kg/injection, schedule: Q01DX Z (ip), vehicle: carboxymethylcellulose (CMC)) was 98 % of control; the T/C (dose: 94.0 mg/kg/injection, schedule: Q01DX Z (ip), vehicle: carboxymethylcellulose (CMC)) is 98 % of control; the T/C (dose: 94.0 mg/kg/injection, schedule: Q01DX Z (oral), vehicle: carboxymethylcellulose (CMC)) was 108 % of control; the T/C (dose: 188.0 mg/kg/injection, schedule: Q01DX Z (ip), vehicle: carboxymethylcellulose (CMC)) is 106 % of control; the T/C (dose: 188.0 mg/kg/injection, schedule: Q01DX Z (oral), vehicle: carboxymethylcellulose (CMC)) was 98 % of control; the T/C (dose: 376.0 mg/kg/injection, schedule: Q01DX Z (ip), vehicle: carboxymethylcellulose (CMC)) is 102 % of control. Further, the T/C (dose: 376.0 mg/kg/injection, schedule: Q01DX Z (oral), vehicle: carboxymethylcellulose (CMC)) was 110 % of control and the T/C (dose: 752.0 mg/kg/injection, schedule: Q01DX Z (oral), vehicle: carboxymethylcellulose (CMC)) is 106 % of control.
Take `COc1ccc(/C=N/O)c(C)c1OC`: the T/C is, setting by setting: under setting [2], 98 % of control; under setting [3], 96 % of control; under setting [4], 96 % of control.
For the molecule `CCCC(NC(=O)CNC(=O)CNC(=O)OCc1ccccc1)C(=O)OC` (stereo not drawn) (Cbz-Gly-Gly-[ξNva]-OMe), the T/C under setting [6] is 98 % of control, the T/C under setting [8] is 97 % of control and the T/C under setting [10] is 103 % of control.
For `CC(=O)N(c1ccccc1)C(C(=O)c1ccccc1)c1ccccc1` (configuration not stated), the T/C is, setting by setting: under setting [1], 98 % of control; under setting [2], 102 % of control; under setting [3], 108 % of control; under setting [4], 98 % of control.
For `O=C(O)C1C2CC3C(OC(=O)C31)C2Br` (configuration not stated), the T/C reads like this: under setting [2], 104 % of control; under setting [5], 91 % of control; under setting [6], 91 % of control; under setting [3], 94 % of control; under setting [7], 96 % of control; under setting [8], 100 % of control. For the same molecule, the T/C runs as follows: under setting [4], 97 % of control; under setting [9], 91 % of control; under setting [10], 104 % of control.
Turning to `O=NN(CCCl)C(=O)NC1CCC(CC2CCC(NC(=O)N(CCCl)N=O)CC2)CC1` (configuration not stated), the T/C runs as follows: (dose: 6.0 mg/kg/injection, schedule: Q01DX001 (ip), vehicle: gum acacia) 105 % of control; (dose: 12.0 mg/kg/injection, schedule: Q01DX001 (ip), vehicle: gum acacia) 151 % of control; (dose: 46.0 mg/kg/injection, schedule: Q01DX001 (ip), vehicle: gum acacia) 184 % of control; (dose: 93.0 mg/kg/injection, schedule: Q01DX001 (ip), vehicle: gum acacia) 298 % of control; (dose: 187.0 mg/kg/injection, schedule: Q01DX001 (ip), vehicle: gum acacia) 315 % of control; (dose: 250.0 mg/kg/injection, schedule: Q01DX001 (ip), vehicle: gum acacia) 318 % of control. Also, the T/C (dose: 375.0 mg/kg/injection, schedule: Q01DX001 (ip), vehicle: gum acacia) is 245 % of control.
As to `O=C(O)c1ccc2c3c(ccc(C(=O)O)c13)CC2`, the T/C under setting [2] was 104 % of control.
Regarding `O=C(c1ccccc1)c1c(-c2ccccc2)c(C(=O)c2ccccc2)c2ccccc2c1Cl`, the T/C is, setting by setting: (dose: 6.25 mg/kg/injection, schedule: Q01DX009 (ip), vehicle: water) 96 % of control; (dose: 12.5 mg/kg/injection, schedule: Q01DX009 (ip), vehicle: water) 97 % of control; (dose: 25.0 mg/kg/injection, schedule: Q01DX009 (ip), vehicle: water) 94 % of control and 117 % of control; (dose: 50.0 mg/kg/injection, schedule: Q01DX009 (ip), vehicle: water) 94 % of control and 97 % of control; (dose: 100.0 mg/kg/injection, schedule: Q01DX009 (ip), vehicle: water) 101 % of control; (dose: 200.0 mg/kg/injection, schedule: Q01DX009 (ip), vehicle: water) 101 % of control. In addition, for the setting “dose: 400.0 mg/kg/injection, schedule: Q01DX009 (ip), vehicle: water”, the T/C is 97 % of control.
For the molecule `CCC1C(=O)OC2OC(c3ccccc3)(c3ccccc3)NC21` (configuration not stated), the T/C is 88 % of control (dose: 100.0 mg/kg/injection, schedule: Q01DX001 (ip), vehicle: carboxymethylcellulose (CMC)); 88 % of control (dose: 200.0 mg/kg/injection, schedule: Q01DX001 (ip), vehicle: carboxymethylcellulose (CMC)); 90 % of control (dose: 400.0 mg/kg/injection, schedule: Q01DX001 (ip), vehicle: carboxymethylcellulose (CMC)).
As for `N#CC(OS(=O)(=O)c1ccccc1)c1ccccc1` (configuration not stated), the T/C (dose: 50.0 mg/kg/injection, schedule: Q01DX001 (ip), vehicle: other) was 89 % of control; the T/C (dose: 100.0 mg/kg/injection, schedule: Q01DX001 (ip), vehicle: other) was 97 % of control; the T/C (dose: 200.0 mg/kg/injection, schedule: Q01DX001 (ip), vehicle: other) is 105 % of control.
Turning to `CCOC(=O)CSc1ccc([N+](=O)[O-])cc1Cl`, the T/C is, setting by setting: under setting [15], 102 % of control; under setting [11], 96 % of control and 101 % of control; under setting [16], 106 % of control; under setting [12], 104 % of control and 106 % of control; (dose: 400.0 mg/kg/injection, schedule: Q01DX009 (ip), vehicle: Klucel (hydroxypropylcellulose) (HPC)) 104 % of control; under setting [13], 95 % of control and 101 % of control.
Turning to `COC1(c2ccccc2)CN(Cc2ccccc2)CCO1` (configuration not stated), the T/C runs as follows: under setting [15], 95 % of control; under setting [16], 98 % of control.
As for `c1ccc(CNCC(NCc2ccccc2)c2ccccc2)cc1` (configuration not stated), the T/C is 91 % of control (dose: 100.0 mg/kg/injection, schedule: Q04DX003 (ip), vehicle: Klucel (hydroxypropylcellulose) (HPC)); 93 % of control under setting [6]; 93 % of control (dose: 200.0 mg/kg/injection, schedule: Q04DX003 (ip), vehicle: Klucel (hydroxypropylcellulose) (HPC)); 97 % of control under setting [8]; 98 % of control (dose: 400.0 mg/kg/injection, schedule: Q04DX003 (ip), vehicle: Klucel (hydroxypropylcellulose) (HPC)); 88 % of control under setting [10].
Turning to `c1ccc(-c2ccccn2)nc1`, the T/C by setting is: under setting [14], 107 % of control; (dose: 200.0 mg/kg/injection, schedule: Q04DX002 (ip), vehicle: saline with Tween-80) 101 % of control; (dose: 400.0 mg/kg/injection, schedule: Q04DX002 (ip), vehicle: saline with Tween-80) 114 % of control.
